Read-outs that look alike come from different tables or passages of the source.

The test system of assay [1] is NF-κB pathway (SEAP) in THP1-Dual cells. As to the kind of experiment: THP-1 Dual cell SEAP assay (L18-MDP stimulated). The class given is cell-based. Conditions: Homo sapiens, THP1-Dual, read-out: NFkB THP1 IC50.
Assay [2] concerns the target GST-RIPK2 fusion protein (human RIPK2 amino acids 1-310) (Homo sapiens (Human), UniProt O43353). The experiment in a line: RIPK2 binding competition assay (TR-FRET, Tracer 199).
The mark [3] stands for this setting: read-out: RIPK2 IC50, RIPK2 binding competition assay.

Sequence of GST-RIPK2 fusion protein (human RIPK2 amino acids 1-310) (O43353 1-310): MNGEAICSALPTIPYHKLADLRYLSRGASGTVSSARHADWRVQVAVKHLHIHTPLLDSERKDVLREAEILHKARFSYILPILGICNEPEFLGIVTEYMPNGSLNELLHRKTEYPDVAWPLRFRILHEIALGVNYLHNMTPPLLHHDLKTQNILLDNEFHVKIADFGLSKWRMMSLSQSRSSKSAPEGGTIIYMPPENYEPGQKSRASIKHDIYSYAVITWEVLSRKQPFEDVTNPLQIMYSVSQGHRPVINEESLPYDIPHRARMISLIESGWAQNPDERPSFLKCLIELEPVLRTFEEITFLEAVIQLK

As for `COc1cc2ncc(-c3ccc(N)nc3F)n2cc1S(=O)(=O)C(C)(C)C` [Example 14, 5-(6-(tert-butylsulfonyl)-7-methoxyimidazo[1,2-a]pyridin-3-yl)-6-fluoropyridin-2-amine], the IC50 in assay [1] was over 1 µM; in assay [2] (setting [3]), over 0.02 µM.

As to `COc1cc2ncc(-c3cc(F)c(OC)c(F)c3)n2cc1S(=O)(=O)C(C)(C)C` [Example 57, 6-(tert-butylsulfonyl)-3-(3,5-difluoro-4-methoxyphenyl)-7-methoxyimidazo[1,2-a]pyridine], the IC50 is over 1 µM in assay [1] and over 0.02 µM in assay [2] (setting [3]).

As for `COc1cc2ncc(-c3cc(F)c(N)nc3F)n2cc1S(=O)(=O)C(C)(C)C(F)F` [Example 154, 5-(6-((1,1-difluoro-2-methylpropan-2-yl)sulfonyl)-7-methoxyimidazo[1,2-a]pyridin-3-yl)-3,6-difluoropyridin-2-amine], the IC50 fell in the range of 0.05 to 0.25 µM in assay [1] and 0.0025 to 0.02 µM in assay [2].

Consider `COc1cc2ncc(-c3cc(F)nc(N4CCN(C)CC4)c3)n2cc1S(=O)(=O)C(C)(C)C` [Example 223, 1-{6-fluoro-4-[7-methoxy-6-(2-methylpropane-2-sulfonyl)imidazo[1,2-a]pyridin-3-yl]pyridin-2-yl}-4-methylpiperazine], for which the IC50 in assay [1] is 0.05 to 0.25 µM; in assay [2], 0.0025 to 0.02 µM.

For `COc1cc2ncc(-c3ccc(N)cn3)n2cc1S(=O)(=O)C(C)(C)C` [Example 71, 6-(6-(tert-butylsulfonyl)-7-methoxyimidazo[1,2-a]pyridin-3-yl)pyridin-3-amine], the IC50 was over 1 µM in assay [1] and over 0.02 µM in assay [2] (setting [3]).

Regarding `COc1cc2ncc(-c3ccc(F)nc3F)n2cc1S(=O)(=O)C(C)(C)C` [Example 9, 6-(tert-butylsulfonyl)-3-(2,6-difluoropyridin-3-yl)-7-methoxyimidazo[1,2-a]pyridine], the IC50 in assay [1] is over 1 µM; in assay [2] (setting [3]), over 0.02 µM.

Consider `COc1cc2ncc(-c3cc(F)c(C#N)c(F)c3)n2cc1S(=O)(=O)C(C)(C)C` [Example 3, 4-(6-(tert-butylsulfonyl)-7-methoxyimidazo[1,2-a]pyridin-3-yl)-2,6-difluorobenzonitrile], for which the IC50 in assay [1] was over 1 µM; in assay [2] (setting [3]), over 0.02 µM.

For `COc1cc2ncc(-c3ccc(C)c(N)n3)n2cc1S(=O)(=O)C(C)(C)C` [Example 332, 6-(6-(tert-butylsulfonyl)-7-methoxyimidazo[1,2-a]pyridin-3-yl)-3-methylpyridin-2-amine], the results for the half-maximal inhibitory concentration (IC50) in assay [1] and in assay [2] (setting [3]) were over 1 µM and over 0.02 µM, respectively.

In the case of `COc1cc2ncc(-c3cc(F)c(OCc4ccccc4)c(NS(C)(=O)=O)c3)n2cc1S(=O)(=O)C(C)(C)C` [Example 147, N-(2-(benzyloxy)-5-(6-(tert-butylsulfonyl)-7-methoxyimidazo[1,2-a]pyridin-3-yl)-3-fluorophenyl) methanesulfonamide], the half-inhibitory concentration (IC50) in assay [1] was over 1 µM; in assay [2], over 0.02 µM.

Turning to `COc1cc2ncc(-c3cc(N)c(C#N)c(F)c3)n2cc1S(=O)(=O)C(C)(C)C` [Example 333, 2-amino-4-(6-(tert-butylsulfonyl)-7-methoxyimidazo[1,2-a]pyridin-3-yl)-6-fluorobenzonitrile], the half-maximal inhibitory concentration (IC50) lay within 0.25 to 1 µM in assay [1] and 0.0025 to 0.02 µM in assay [2].

For `COc1cc2ncc(-c3cnc(N)s3)n2cc1S(=O)(=O)C(C)(C)C` [Example 166, 5-(6-(tert-butylsulfonyl)-7-methoxyimidazo[1,2-a]pyridin-3-yl)thiazol-2-amine], the values for the IC50 in assay [1] and in assay [2] (setting [3]) were over 1 µM and over 0.02 µM, respectively.

As for `COc1cc2ncc(-c3cc(Cl)nc(Cl)c3)n2cc1S(=O)(=O)C(C)(C)C` [Example 8, 6-(tert-butylsulfonyl)-3-(2,6-dichloropyridin-4-yl)-7-methoxyimidazo[1,2-a]pyridine], the IC50 is over 1 µM in assay [1] and over 0.02 µM in assay [2] (setting [3]).

As to `COc1cc2ncc(-c3cc(F)c(N)nc3F)n2cc1S(=O)(=O)C(C)(C)CF` [Example 123, 3,6-difluoro-5-[5-(2-fluoro-1,1-dimethylethylsulfonyl)-6-methoxy-1,3a-diaza-3-indenyl]-2-pyridylamine], the results for the IC50 in assay [1] and in assay [2] (setting [3]) were over 1 µM and over 0.02 µM, respectively.

For `CCCS(=O)(=O)Nc1cc(-c2cnc3cc(OC)c(S(=O)(=O)C(C)(C)C)cn23)cc(C)c1OC` [Example 268, N-(5-(6-(tert-butylsulfonyl)-7-methoxyimidazo[1,2-a]pyridin-3-yl)-2-methoxy-3-methylphenyl)propane-1-sulfonamide], the IC50 in assay [1] was 0.05 to 0.25 µM; in assay [2], 0.001 to 0.0025 µM.

Regarding `CNc1ccc(-c2cnc3cc(OC)c(S(=O)(=O)C(C)(C)C)cn23)cn1` [Example 69, 5-(6-(tert-butylsulfonyl)-7-methoxyimidazo[1,2-a]pyridin-3-yl)-N-methylpyridin-2-amine], the half-maximal inhibitory concentration (IC50) in assay [1] is over 1 µM; in assay [2] (setting [3]), over 0.02 µM.

Turning to `CCc1ccc(-c2cnc3cc(OC)c(S(=O)(=O)C(C)(C)C)cn23)nc1N` [Example 331, 6-(6-(tert-butylsulfonyl)-7-methoxyimidazo[1,2-a]pyridin-3-yl)-3-ethylpyridin-2-amine], the IC50 was over 1 µM in assay [1] and over 0.02 µM in assay [2] (setting [3]).

In the case of `COc1cc(-c2cnc3cc(OC)c(S(=O)(=O)C(C)(C)C)cn23)cc(F)n1` [Example 302, 6-(tert-butylsulfonyl)-3-(2-fluoro-6-methoxypyridin-4-yl)-7-methoxyimidazo[1,2-a]pyridine], the half-maximal inhibitory concentration (IC50) is 0.25 to 1 µM in assay [1] and 0.0025 to 0.02 µM in assay [2].

In the case of `COc1cc2ncc(-c3ccc(S(N)(=O)=O)cc3)n2cc1S(=O)(=O)C(C)(C)C` [Example 152, 4-(6-(tert-butylsulfonyl)-7-methoxyimidazo[1,2-a]pyridin-3-yl)benzenesulfonamide], the IC50 is over 1 µM in assay [1] and over 0.02 µM in assay [2] (setting [3]).

On to `COc1cc2ncc(-c3cc(F)nc(NCC[C@@H]4CNC(=O)C4)c3)n2cc1S(=O)(=O)C(C)(C)C` (single isomer, unassigned) [Example 241, (4R or S)-4-[2-({6-fluoro-4-[7-methoxy-6-(2-methylpropane-2-sulfonyl)imidazo[1,2-a]pyridin-3-yl]pyridin-2-yl}amino)ethyl] pyrrolidin-2-one], for which the concentration for half-maximal inhibition (IC50) in assay [1] was under 0.05 µM; in assay [2] it was under 0.001 µM.

Turning to `COc1cn2ncc(-c3cc(F)c(N)nc3F)c2cc1S(=O)(=O)C(C)(C)C` [Example 100, 5-(5-(tert-butylsulfonyl)-6-methoxypyrazolo[1,5-a]pyridin-3-yl)-3,6-difluoropyridin-2-amine], the 50% inhibitory concentration (IC50) lay within 0.25 to 1 µM in assay [1] and 0.0025 to 0.02 µM in assay [2].

On to `CCCS(=O)(=O)Nc1cc(F)cc(-c2cnc3cc(OC)c(S(=O)(=O)C(C)(C)C)cn23)c1F` [Example 292, N-(3-(6-(tert-butylsulfonyl)-7-methoxyimidazo[1,2-a]pyridin-3-yl)-2,5-difluorophenyl)propane-1-sulfonamide], for which the results for the concentration for half-maximal inhibition (IC50) in assay [1] and in assay [2] were over 1 µM and 0.0025 to 0.02 µM, respectively.

Take `COc1cc2ncc(-c3ccc(N)nc3C#N)n2cc1S(=O)(=O)C(C)(C)C` [Example 108, 6-amino-3-(6-(tert-butylsulfonyl)-7-methoxyimidazo[1,2-a]pyridin-3-yl)picolinonitrile]: the IC50 in assay [1] is over 1 µM; in assay [2] (setting [3]), over 0.02 µM.

Take `COc1cc2ncc(-c3cc(F)c(OC)c(C(C)(C)O)c3)n2cc1S(=O)(=O)C(C)(C)C` [Example 337, 2-(5-(6-(tert-butylsulfonyl)-7-methoxyimidazo[1,2-a]pyridin-3-yl)-3-fluoro-2-methoxyphenyl)propan-2-ol]: the IC50 lay within 0.25 to 1 µM in assay [1] and 0.001 to 0.0025 µM in assay [2].

Turning to `COc1cc2ncc(-c3ccnc(NCCCO)c3)n2cc1S(=O)(=O)C(C)(C)C` [Example 247, 3-({4-[7-methoxy-6-(2-methylpropane-2-sulfonyl)imidazo[1,2-a]pyridin-3-yl]pyridin-2-yl}amino)propan-1-ol], the half-maximal inhibitory concentration (IC50) in assay [1] is under 0.05 µM; in assay [2], 0.0025 to 0.02 µM.

As to `COc1cc2ncc(-c3cc(F)nc(NCC4(CO)CC4)c3)n2cc1S(=O)(=O)C(C)(C)C` [Example 201, (1-(((4-(6-(tert-butylsulfonyl)-7-methoxyimidazo[1,2-a]pyridin-3-yl)-6-fluoropyridin-2-yl)amino)methyl)cyclo-propyl)methanol], the 50% inhibitory concentration (IC50) in assay [1] is under 0.05 µM; in assay [2], 0.001 to 0.0025 µM.

In the case of `COc1cc2ncc(-c3cc(F)c(OCCO)c(Br)c3)n2cc1S(=O)(=O)C(C)(C)C` [Example 306, 2-(2-bromo-4-(6-(tert-butylsulfonyl)-7-methoxyimidazo[1,2-a]pyridin-3-yl)-6-fluorophenoxy)ethan-1-ol], the IC50 in assay [1] was in the range of 0.05 to 0.25 µM; in assay [2], 0.0025 to 0.02 µM.

For the compound `COc1cc2ncc(-c3cc(F)nc(NC[C@H]4CCNC(=O)C4)c3)n2cc1S(=O)(=O)C(C)(C)C` (single isomer, unassigned) [Example 239, (4R or S)-4-[({6-fluoro-4-[7-methoxy-6-(2-methylpropane-2-sulfonyl)imidazo[1,2-a]pyridin-3-yl]pyridin-2-yl}amino)methyl]pi peridin-2-one], the half-maximal inhibitory concentration (IC50) in assay [1] is under 0.05 µM; in assay [2], under 0.001 µM.

Consider `COc1cc2ncc(-c3cc(F)nc(NCCC4(O)CC4)c3)n2cc1S(=O)(=O)C(C)(C)C` [Example 198, 1-(2-((4-(6-(tert-butylsulfonyl)-7-methoxyimidazo[1,2-a]pyridin-3-yl)-6-fluoropyridin-2-yl)amino)ethyl)cyclo-propan-1-ol], for which the IC50 is under 0.05 µM in assay [1] and under 0.001 µM in assay [2] (setting [3]).

In the case of `CCOc1cc2ncc(-c3cnc(N)c(F)c3)n2cc1S(=O)(=O)C(C)C` [Example 117, 5-[6-ethoxy-5-(isopropylsulfonyl)-1,3a-diaza-3-indenyl]-3-fluoro-2-pyridylamine], the IC50 in assay [1] was over 1 µM; in assay [2] (setting [3]), over 0.02 µM.

For the compound `CCOc1nc(N)c(F)cc1-c1cnc2cc(OC)c(S(=O)(=O)C(C)(C)C)cn12` [Example 112, 5-(6-(tert-butylsulfonyl)-7-methoxyimidazo[1,2-a]pyridin-3-yl)-6-ethoxy-3-fluoropyridin-2-amine], the IC50 in assay [1] is over 1 µM; in assay [2], 0.0025 to 0.02 µM.

A word on the IC50: it is the midpoint of a concentration-inhibition curve.

The record behind these values is US20250346593A1, “IMIDAZO(1,2-1)PYRIDINE DERIVATIVES AS RIPK2 INHIBITORS” (Interline Therapeutics, Inc., priority 2022, published 2025).
